Source: PubChem BioAssay AID1963849 (Molecular Pharmacology Branch, DTP, NCI, 2024)

Tested on: 299254-011-R-J1-PDC complex spheroid viability
Assay: Anticancer human tumor 299254-011-R-J1-PDC patient-derived melanoma cell line growth inhibition [POLQ]
Details: for IC50: curve of first compound; for viability, T/C: stronger effect = lower value
Procedure, shortened: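 Complex spheroid viability model combining PDC tumour cells with endothelial (HUVEC) and MSC stromal cells. Novobiocin, ART-558 or RP6685 were tested singly and in combination with standard and investigational anticancer drugs. Each was titrated in half-log steps from near clinical Cmax, or from 10 microM where Cmax was unknown.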

[1] = second compound 0.0316 µM, first compound 0.0316 µM
[2] = second compound 0.0316 µM, first compound 0.1 µM
[3] = second compound 0.0316 µM, first compound 0.316 µM
[4] = second compound 0.0316 µM, first compound 1 µM
[5] = second compound 0.0316 µM, first compound 3.16 µM
[6] = second compound 0.0316 µM, first compound 10 µM
[7] = second compound 0.1 µM, first compound 0.0316 µM
[8] = second compound 0.1 µM, first compound 0.1 µM
[9] = second compound 0.1 µM, first compound 0.316 µM
[10] = second compound 0.1 µM, first compound 1 µM
[11] = second compound 0.1 µM, first compound 3.16 µM
[12] = second compound 0.1 µM, first compound 10 µM
[13] = second compound 0.316 µM, first compound 0.0316 µM
[14] = second compound 0.316 µM, first compound 0.1 µM
[15] = second compound 0.316 µM, first compound 0.316 µM
[16] = second compound 0.316 µM, first compound 1 µM
[17] = second compound 0.316 µM, first compound 3.16 µM
[18] = second compound 0.316 µM, first compound 10 µM
[19] = second compound 1 µM, first compound 0.0316 µM
[20] = second compound 1 µM, first compound 0.1 µM
[21] = second compound 1 µM, first compound 0.316 µM
[22] = second compound 1 µM, first compound 1 µM
[23] = second compound 1 µM, first compound 3.16 µM
[24] = second compound 1 µM, first compound 10 µM
[25] = second compound 3.16 µM, first compound 0.0316 µM
[26] = second compound 3.16 µM, first compound 0.1 µM
[27] = second compound 3.16 µM, first compound 0.316 µM
[28] = second compound 3.16 µM, first compound 1 µM
[29] = second compound 3.16 µM, first compound 3.16 µM
[30] = second compound 3.16 µM, first compound 10 µM
[31] = second compound 10 µM, first compound 0.0316 µM
[32] = second compound 10 µM, first compound 0.1 µM
[33] = second compound 10 µM, first compound 0.316 µM
[34] = second compound 10 µM, first compound 1 µM
[35] = second compound 10 µM, first compound 3.16 µM
[36] = second compound 10 µM, first compound 10 µM
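Note: spheroids exposed to drugs for one week before measurement.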
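Throughout, for viability, T/C: percent viability relative to DMSO vehicle control taken as 100%.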

SMILES: Nc1ccn(C2OC(CO)C(O)C2(F)F)c(=O)n1 (stereo unspecified) + Nc1ccc(C#CCN(C(=O)Cc2ncc(C(F)(F)F)cc2C(F)(F)F)c2ccc(F)cc2)nn1
- IC50 (second compound 0.0316 µM): 0.123 µM
- IC50 (second compound 0.1 µM): 0.351 µM
- IC50 (second compound 0.316 µM): 0.0827 µM
- IC50 (second compound 1 µM): 0.252 µM
- IC50 (second compound 3.16 µM): 0.144 µM
- IC50 (second compound 10 µM): 0.277 µM
- viability, T/C [1]: 71.9%
- viability, T/C [2]: 54.2%
- viability, T/C [3]: 33.7%
- viability, T/C [4]: 50.7%
- viability, T/C [5]: 51.7%
- viability, T/C [6]: 47.1%
- viability, T/C [7]: 60.7%
- viability, T/C [8]: 54.7%
- viability, T/C [9]: 49.6%
- viability, T/C [10]: 48.5%
- viability, T/C [11]: 46%
- viability, T/C [12]: 46.9%
- viability, T/C [13]: 90%
- viability, T/C [14]: 41.4%
- viability, T/C [15]: 49.6%
- viability, T/C [16]: 37.7%
- viability, T/C [17]: 43.7%
- viability, T/C [18]: 38.2%
- viability, T/C [19]: 86.2%
- viability, T/C [20]: 69.2%
- viability, T/C [21]: 45.1%
- viability, T/C [22]: 45.7%
- viability, T/C [23]: 48%
- viability, T/C [24]: 36.4%
- viability, T/C [25]: 73.7%
- viability, T/C [26]: 51.5%
- viability, T/C [27]: 47%
- viability, T/C [28]: 42.1%
- viability, T/C [29]: 37.7%
- viability, T/C [30]: 43.5%
- viability, T/C [31]: 80%
- viability, T/C [32]: 91.5%
- viability, T/C [33]: 45.4%
- viability, T/C [34]: 36.9%
- viability, T/C [35]: 39.7%
- viability, T/C [36]: 45%

SMILES: O=C(c1cc(Cc2n[nH]c(=O)c3ccccc23)ccc1F)N1CCN(C(=O)C2CC2)CC1 + Nc1ccc(C#CCN(C(=O)Cc2ncc(C(F)(F)F)cc2C(F)(F)F)c2ccc(F)cc2)nn1
- IC50 (second compound 0.0316 µM): > 10 µM
- IC50 (second compound 0.1 µM): > 10 µM
- IC50 (second compound 0.316 µM): > 10 µM
- IC50 (second compound 1 µM): > 10 µM
- IC50 (second compound 3.16 µM): > 10 µM
- IC50 (second compound 10 µM): > 10 µM
- viability, T/C [1]: 120%
- viability, T/C [2]: 96.6%
- viability, T/C [3]: 92.4%
- viability, T/C [4]: 91.7%
- viability, T/C [5]: 107%
- viability, T/C [6]: 95.6%
- viability, T/C [7]: 94%
- viability, T/C [8]: 105%
- viability, T/C [9]: 97.2%
- viability, T/C [10]: 95.3%
- viability, T/C [11]: 112%
- viability, T/C [12]: 88%
- viability, T/C [13]: 111%
- viability, T/C [14]: 122%
- viability, T/C [15]: 106%
- viability, T/C [16]: 105%
- viability, T/C [17]: 97.2%
- viability, T/C [18]: 84.6%
- viability, T/C [19]: 105%
- viability, T/C [20]: 95.4%
- viability, T/C [21]: 100%
- viability, T/C [22]: 110%
- viability, T/C [23]: 109%
- viability, T/C [24]: 85.3%
- viability, T/C [25]: 103%
- viability, T/C [26]: 96.7%
- viability, T/C [27]: 94.8%
- viability, T/C [28]: 113%
- viability, T/C [29]: 93.8%
- viability, T/C [30]: 71%
- viability, T/C [31]: 89.1%
- viability, T/C [32]: 98.5%
- viability, T/C [33]: 113%
- viability, T/C [34]: 88.8%
- viability, T/C [35]: 99.4%
- viability, T/C [36]: 63.5%

SMILES: O=c1[nH]cc(F)c(=O)[nH]1 + Nc1ccc(C#CCN(C(=O)Cc2ncc(C(F)(F)F)cc2C(F)(F)F)c2ccc(F)cc2)nn1
- IC50 (second compound 0.0316 µM): > 10 µM
- IC50 (second compound 0.1 µM): > 10 µM
- IC50 (second compound 0.316 µM): > 10 µM
- IC50 (second compound 1 µM): > 10 µM
- IC50 (second compound 3.16 µM): > 10 µM
- IC50 (second compound 10 µM): > 10 µM
- viability, T/C [1]: 92.7%
- viability, T/C [2]: 111%
- viability, T/C [3]: 101%
- viability, T/C [4]: 113%
- viability, T/C [5]: 89.8%
- viability, T/C [6]: 81.4%
- viability, T/C [7]: 103%
- viability, T/C [8]: 91.2%
- viability, T/C [9]: 119%
- viability, T/C [10]: 87%
- viability, T/C [11]: 82.5%
- viability, T/C [12]: 85.3%
- viability, T/C [13]: 92%
- viability, T/C [14]: 93.3%
- viability, T/C [15]: 101%
- viability, T/C [16]: 101%
- viability, T/C [17]: 95.1%
- viability, T/C [18]: 68%
- viability, T/C [19]: 116%
- viability, T/C [20]: 99.8%
- viability, T/C [21]: 95.1%
- viability, T/C [22]: 85.6%
- viability, T/C [23]: 91.5%
- viability, T/C [24]: 78.5%
- viability, T/C [25]: 104%
- viability, T/C [26]: 95%
- viability, T/C [27]: 101%
- viability, T/C [28]: 96.8%
- viability, T/C [29]: 84.3%
- viability, T/C [30]: 89.5%
- viability, T/C [31]: 91.1%
- viability, T/C [32]: 94.2%
- viability, T/C [33]: 101%
- viability, T/C [34]: 95.4%
- viability, T/C [35]: 88.7%
- viability, T/C [36]: 69.1%
